Laboratory results taken from patent US10005773B2, “1-(4-pyrimidinyl)-1H-pyrrolo[3,2-c]pyridine derivatives as NIK inhibitors” (Janssen Pharmaceutica NV, priority 2013, dated 2018).
pEC50, pIC50: −log10 of the molar value.

Experiments:
[1] = target: T1, Recombinant Human NF-kappaB-Inducing Kinase (NIK/MAP3K14) (Homo sapiens, UniProt Q99558); experiment: Biological Assay A: inhibition of recombinant human NIK/MAP3K14 activity (MSD, MBP substrate); details: 25 μM ATP, 10 nM NIK/MAP3K14, 1 h at 25° C.; averaged over all batches; read-out: Biochemical (MSD MBP) IC50
Method: Inhibition of Recombinant Human NF-kappaB-Inducing Kinase (NIKIMAP3K14) Activity
Assay buffer was 50 mM Tris pH 7.5 containing 1 mM ethylene glycol tetraacetic acid (EGTA), 1 mM dithiothreitol (DTT), 0.1 mM Na3VO4, 5 mM MgCl2, 0.01% Tween® 20. Assays were carried out in 384 well Mesoscale high binding plates which had been coated with myelin basic protein (MBP) and blocked with bovine serum albumin to prevent non-specific protein binding. All compounds tested were dissolved in dimethyl sulfoxide (DMSO) and further dilutions were made in assay buffer. Final DMSO concentration was 1% (v/v) in assays. Incubations consisted of compound (1% DMSO in control and blank wells), 25 μM Adenosine-5′-triphosphate (ATP), and 10 nM NIK/MAP3K14 substituting enzyme with buffer in the blank wells. Incubations were carried out for 1 h at 25° C. and were followed by washing and sequential incubation with rabbit anti-phospho-MBP and anti-rabbit Ig Sulfotag antibody before reading bound Sulfotag on a Mesoscale Discovery. Signal obtained in the wells containing blank samples was subtracted from all other wells and IC50's were determined by fitting a sigmoidal curve to % inhibition of control versus Log10 compound concentration.

JJN-3 cells = experiment: Biological Assay C: antiproliferative activity on JJN-3 cells (CellTiter-Glo); assay type: cell-based; details: Homo sapiens, 72 hr treatment
Method: (§1) Determination of Antiproliferative Activity on LP-1, L-363 and JJN-3 Cells
(§2) All compounds tested were dissolved in DMSO and further dilutions were made in culture medium. Final DMSO concentration was 0.3% (v/v) in cell proliferation assays. Viability was assessed using CellTiter-Glo cell viability assay kit (Promega). The human LP-1, L-363 and JJN-3 cells (DSMZ) were cultured in RPMI 1640 medium supplemented with 2 mM L-glutamine, and 10% fetal calf serum (PAA). Cells were routinely kept as suspension cells at 37° C. in a humidified 5% CO2 atmosphere. Cells were passaged at a seeding density of 0.2×10^6/ml twice a week. Cells were seeded in black tissue culture treated 96-well plates (Perkin Elmer). Densities used for plating ranged from 2,000 to 6,000 cells per well in a total volume of 75 μl medium. After twenty four hours, drugs and/or solvents were added (25 μl) to a final volume of 100 μl. Following 72 hr of treatment plates were removed from the incubator and allowed to equilibrate to room temperature for approx 10 min. 100 μl CellTiter-Glo reagent was added to each well that was then covered (Perkin Elmer Topseal) and shaken on plate shaker for 10 min. Luminescence was measured on a HTS Topcount (Perkin Elmer). Within an experiment, the results for each treatment were the mean of 2 replicate wells. For initial screening purposes, compounds were tested using a 9 point dilution curve (serial 1:3 dilutions). For each experiment, controls (containing no drug) and a blank incubation (containing cells read at the time of compound addition) were run in parallel. The blank value was subtracted from all control and sample values. For each sample, the mean value for cell growth (in relative light units) was expressed as a percentage of the mean value for cell growth of the control.

LP-1 cells = experiment: Biological Assay C: antiproliferative activity on LP-1 cells (CellTiter-Glo); assay type: cell-based; details: Homo sapiens, 72 hr treatment
Method: as §1, §2

L-363 cells = experiment: Biological Assay C: antiproliferative activity on L-363 cells (CellTiter-Glo); assay type: cell-based; details: Homo sapiens, 72 hr treatment
Method: as §1, §2

[2] = target: T1, Recombinant Human NF-kappaB-Inducing Kinase (NIK/MAP3K14); experiment: Biological Assay A2: inhibition of auto-phosphorylation of recombinant human NIK/MAP3K14 (AlphaScreen); assay type: biochemical; details: 25 microM ATP, 0.2 nM NIK/MAP3K14, 1 h at 25° C., averaged over all batches, read-out: Alpha-Screen IC50
Method: Inhibition of Auto-Phosphorylation of Recombinant Human NF-kappaB-Inducing Kinase (NIKIMAP3K14) Activity (AlphaScreen®)
NIK/MAP3K14 auto-phosphorylation activity was measured using the AlphaScreen® (ascreen) format (Perkin Elmer). All compounds tested were dissolved in dimethyl sulfoxide (DMSO) and further dilutions were made in assay buffer. Final DMSO concentration was 1% (v/v) in assays. Assay buffer was 50 mM Tris pH 7.5 containing 1 mM EGTA (ethylene glycol tetraacetic acid), 1 mM DTT (dithiothreitol), 0.1 mM Na3VO4, 5 mM MgCl2, 0.01% Tween® 20. Assays were carried out in 384 well Alphaplates (Perkin Elmer). Incubations consisted of compound, 25 microM Adenosine-5′-triphosphate (ATP), and 0.2 nM NIK/MAP3K14. Incubations were initiated by addition of GST-tagged NIK/MAP3K14 enzyme, carried out for 1 h at 25° C. and terminated by addition of stop buffer containing anti-phospho-IKK Ser176/180 antibody. Protein A Acceptor and Glutathione-Donor beads were added before reading using an EnVision® Multilabel Plate Reader (Perkin Elmer). Signal obtained in the wells containing blank samples was subtracted from all other wells and IC50's were determined by fitting a sigmoidal curve to % inhibition of control versus Log10 compound concentration.

[3] = test system: P-IKKα levels in L363 cells; experiment: Biological Assay B: effect of compounds on P-IKKα levels in L363 cells; assay type: cell-based; details: Homo sapiens, L-363, BAFF stimulated, 2 hr treatment, averaged over all batches, read-out: IKKα Cellular IC50
Method: Effect of Compounds on P-IKKα Levels in L363 Cells
All compounds tested were dissolved in DMSO and further dilutions were made in culture medium. Final DMSO concentration was 1% (v/v) in cell assays. The human L363 cells (ATCC) were cultured in RPMI 1640 medium supplemented with GlutaMax and 10% fetal calf serum (PAA). Cells were routinely maintained at densities of 0.2×10^6 cells per ml-1×10^6 cells per ml at 37° C. in a humidified 5% CO2 atmosphere. Cells were passaged twice a week splitting back to obtain the low density. Cells were seeded in 96 well plates (Nunc 167008) at 2×10^6 per ml media in a volume of 75 μl per well plus 25 μl 1 μg/ml recombinant human B-cell activating factor (BAFF/BLyS/TNFSF13B). Seeded cells were incubated at 37° C. in a humidified 5% CO2 atmosphere for 24 hr. Drugs and/or solvents were added (20 μl) to a final volume of 120 μl. Following 2 hr treatment plates were removed from the incubator and cell lysis was achieved by the addition of 30 μl 5× lysis buffer followed by shaking on a plate shaker at 4° C. for 10 min. At the end of this incubation lysed cells were centrifuged at 800×g for 20 min at 4° C. and the lysate was assessed for P-IKKα levels by sandwich immuno-assay carried out in anti-rabbit antibody coated Mesoscale plates. Within an experiment, the results for each treatment were the mean of 2 replicate wells. For initial screening purposes, compounds were tested using an 8 point dilution curve (serial 1:3 dilutions). For each experiment, controls (containing MG132 and BAFF but no test drug) and a blank incubation (containing MG132 and BAFF and 10 μM ADS125117, a test concentration known to give full inhibition) were run in parallel. The blank incubation value was subtracted from all control and sample values. To determine the IC50 a sigmoidal curve was fitted to the plot of % inhibition of control P-IKKα levels versus Log10 compound concentration.

T1 sequence (Q99558 whole entry): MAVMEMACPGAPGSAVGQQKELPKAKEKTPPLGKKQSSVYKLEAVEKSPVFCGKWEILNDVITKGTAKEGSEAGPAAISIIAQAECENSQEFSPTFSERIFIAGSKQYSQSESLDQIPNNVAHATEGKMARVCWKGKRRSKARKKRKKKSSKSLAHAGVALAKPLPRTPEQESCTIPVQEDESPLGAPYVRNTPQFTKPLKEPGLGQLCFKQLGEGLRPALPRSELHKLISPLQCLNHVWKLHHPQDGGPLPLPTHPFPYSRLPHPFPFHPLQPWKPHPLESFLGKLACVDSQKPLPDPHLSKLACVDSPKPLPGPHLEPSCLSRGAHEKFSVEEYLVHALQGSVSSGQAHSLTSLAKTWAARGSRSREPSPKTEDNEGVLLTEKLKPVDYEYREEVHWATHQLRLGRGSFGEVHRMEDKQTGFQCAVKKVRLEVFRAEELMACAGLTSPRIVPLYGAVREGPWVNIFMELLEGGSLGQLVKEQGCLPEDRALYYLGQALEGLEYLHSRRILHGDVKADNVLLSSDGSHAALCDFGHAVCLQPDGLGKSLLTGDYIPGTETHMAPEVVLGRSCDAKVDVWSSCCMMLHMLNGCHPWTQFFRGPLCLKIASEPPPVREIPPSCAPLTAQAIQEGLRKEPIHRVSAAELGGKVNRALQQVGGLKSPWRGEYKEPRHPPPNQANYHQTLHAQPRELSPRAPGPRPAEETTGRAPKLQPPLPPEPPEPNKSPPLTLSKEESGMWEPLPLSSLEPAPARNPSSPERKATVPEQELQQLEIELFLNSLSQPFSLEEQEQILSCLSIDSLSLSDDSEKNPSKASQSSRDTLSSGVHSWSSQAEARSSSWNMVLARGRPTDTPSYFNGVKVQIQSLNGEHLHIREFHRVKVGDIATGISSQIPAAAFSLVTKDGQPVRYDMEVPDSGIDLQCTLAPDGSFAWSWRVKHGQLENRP

Row | Compound | pIC50 [1] | pIC50 [2] | pIC50 [3] | pEC50 (JJN-3 cells) | pEC50 (LP-1 cells) | pEC50 (L-363 cells)
1 | CNC(=O)c1cn(-c2ccnc(N)n2)c2cc(C#CC(C)(C)O)ncc12 [Compound 15] | 7.43 | 7.23 | 5.88 | 5.48 | < 4.52 | 5.14
2 | CC(CO)c1cn(-c2ccnc(N)n2)c2cc(C#CC(C)(C)O)ncc12 (stereo not drawn) [Compound 16] | 7.70 | 8.17 | 7.25 | 6.80 | 5.21 | 6.45
3 | CCCCOCc1cn(-c2ccnc(N)n2)c2cc(C#CC(C)(C)O)ncc12 [Compound 17] | 7.09 | 6.59 | 6.70 | 6.48 | 6.34 | 6.33
4 | CN1CCC(c2cn(-c3ccnc(N)n3)c3cc(C#CC(C)(C)O)ncc23)CC1 [Compound 23] | 7.48 | 7.46 | 7.06 | 6.94 | 5.72 | 7.04
5 | CN1CCC(c2cn(-c3ccnc(N)n3)c3cc(C#CC4(O)CCCC4)ncc23)CC1 [Compound 24] | 7.40 | 7.43 | 6.74 | 6.11 | 5.37 | 6.29
6 | CN1CCC(c2cn(-c3nc(N)ncc3F)c3cc(C#CC(C)(C)O)ncc23)CC1 [Compound 25] | 6.99 | 7.02 | 7.12 | 6.89 | 5.98 | 6.98
7 | COCCc1cn(-c2ccnc(N)n2)c2cc(C#CC(C)(C)O)ncc12 [Compound 27] | 7.51 | 7.48 | 7.32 | 6.84 | 6.35 | 6.71
8 | CC(C)(O)C#Cc1cc2c(cn1)c(CCCO)cn2-c1ccnc(N)n1 [Compound 28] | 8.41 | 8.26 | 7.55 | 6.79 | 5.35 | 6.67
9 | CC(C)(O)C#Cc1cc2c(cn1)c(CCCO)cn2-c1nc(N)ncc1F [Compound 29] | 7.72 | 7.62 | 7.49 | 6.53 | 5.46 | 6.56

The next lines start with results.

Row | pIC50 [1] | pIC50 [2] | pIC50 [3] | Compound | pEC50 (JJN-3 cells) | pEC50 (LP-1 cells) | pEC50 (L-363 cells)
10 | 8.42 | 7.80 | 6.79 | CC(C)(O)C#Cc1cc2c(ccn2-c2nc(N)ncc2Cl)cn1 [Compound 7] | 5.98 | 5.72 | 6.01
11 | 7.92 | 7.62 | 6.98 | Nc1ncc(Cl)c(-n2ccc3cnc(C#CC4(O)CC4)cc32)n1 [Compound 8] | 5.80 | 5.63 | 5.81
12 | 8.55 | 7.96 | 7.00 | Nc1ncc(Cl)c(-n2ccc3cnc(C#CC4(O)CCCC4)cc32)n1 [Compound 9] | 5.74 | 4.43 | 4.81
13 | 8.29 | 7.74 | 7.05 | CC(O)(C#Cc1cc2c(ccn2-c2nc(N)ncc2Cl)cn1)c1nccs1 (stereo not drawn) [Compound 10] | 5.92 | 4.55 | 4.89
14 | 6.94 | 6.63 | 6.48 | Cc1cnc(N)nc1-n1ccc2cnc(C#CC(C)(C)O)cc21 [Compound 11] | 5.57 | 5.23 | 5.42
15 | 7.11 | 7.89 | 7.60 | CC(C)(O)C#Cc1cc2c(ccn2-c2nc(N)ncc2F)cn1 [Compound 12] | 6.88 | 6.55 | 6.88
16 | 7.74 | 8.11 | 7.36 | Nc1ncc(F)c(-n2ccc3cnc(C#CC4(O)CCCC4)cc32)n1 [Compound 13] | 6.06 | 5.49 | 5.37
17 | 7.55 | 6.73 | 5.91 | CC(C)(O)C#Cc1cc2c(cn1)c(C(N)=O)cn2-c1ccnc(N)n1 [Compound 14] | 4.97 | < 4.52 | 4.90
18 | 7.66 | 7.70 | 7.25 | COCc1cn(-c2ccnc(N)n2)c2cc(C#CC(C)(C)O)ncc12 [Compound 18] | 6.50 | 5.88 | 6.61
19 | 7.01 | 7.27 | 6.11 | CC(C)(O)C#Cc1cc2c(cn1)c(C#N)cn2-c1ccnc(N)n1 [Compound 19] | 5.84 | 5.33 | 5.74
20 | 7.89 | 7.59 | 7.26 | CC(C)(O)C#Cc1cc2c(cn1)c(CC#N)cn2-c1ccnc(N)n1 [Compound 20] | 6.72 | 5.89 | 6.50
21 | 7.96 | 7.82 | 8.02 | CCc1cn(-c2ccnc(N)n2)c2cc(C#CC(C)(C)O)ncc12 [Compound 21] | 7.39 | 7.15 | 7.36
22 | 8.19 | 7.80 | 7.80 | CC(C)c1cn(-c2ccnc(N)n2)c2cc(C#CC(C)(C)O)ncc12 [Compound 22] | 7.31 | 6.88 | 7.33
23 | 8.42 | 7.96 | 7.39 | CC(C)(O)C#Cc1cc2c(cn1)c(CCO)cn2-c1ccnc(N)n1 [Compound 26] | 6.74 | 5.16 | 6.08
